Literature values, collected in patent publication US20030027805A1, “Use of 1,4-androstadienedione as a method of increasing levels of the anabolic/androgenic steroid boldenone in humans” (priority 2000, published 2003).
Values joined by “and” are separate entries in the source; they are usually repeats but may differ in a detail not shown here. Equal values may be shown once.

Conditions: for excretion in 17-hydroxy form: urinary, after oral dosing, comparison reported in literature

Row | Structure (SMILES) | excretion of 17beta-hydroxysteroid metabolites compared with 1-androstenedione (comparison by the same authors with later 1-androstenedione study) | total recovery of 17-OH steroids (human, two subjects, urine, within 24 hours after oral administration of 100 mg, boldenone conjugates plus other 17-beta hydroxysteroids) | urinary recovery of boldenone conjugates (human, two subjects, within 24 hours after oral administration of 100 mg) | excretion in 17-hydroxy form
1 | C[C@]12C=CC(=O)C=C1CC[C@@H]1[C@@H]2CC[C@]2(C)C(=O)CC[C@@H]12 [androstadienedione, 1,4-androstadiene-3,17-dione] | far more | 18.4 % of the given dose and 21.2 % of the given dose | 7.1 % of the initial dosage and 11.1 % of the initial dosage | –
2 | C[C@]12CC[C@H]3[C@@H](CCC4=CC(=O)CC[C@@]43C)[C@@H]1CC[C@@H]2O [testosterone, reference compound] | – | – | – | only in very small amounts
3 | C[C@]12CCC(=O)C=C1CC[C@@H]1[C@@H]2CC[C@]2(C)C(=O)CC[C@@H]12 [androstenedione, reference compound] | – | – | – | only in very small amounts
